Earlier results on 1 molecule are cited in patent US7767227B2, “Galenical form for oral administration with prolonged release of molsidomine” (Therabel Pharmaceuticals Limited, priority 2000, dated 2010).

SMILES strings stand for the structures. Where two headings read alike, the source gives them in different places.

As to `CCOC(=O)[N-]c1cn(N2CCOCC2)n[o+]1` [Molsidomine, N-(ethoxycarbonyl)-3-(4-morpholinyl)sydnone imine], the period of action is, setting by setting: (4 mg dose) 4 to 5 h; (8 mg dose) 10 to 12 h.
